Tested on: Aspergillus flavus
Test: Antifungal activity against Aspergillus flavus at 200 ug/disk by disk assay
Assay type: functional
Details: read-out: IZ

Q: For `CC(=O)O[C@@H]1C[C@]2(C)C3=C(CC[C@H]2C(C)(C)[C@@H]1O[C@@H]1O[C@H](CO)[C@@H](O)[C@H](O)[C@H]1O)[C@@]1(C)CC[C@](C)([C@H](C)C(C)C)[C@@H](C(=O)O)[C@]1(C)CC3` [FUSCOATROSIDE], which zone of inhibition at 200 µg/disc is on record?
A: 18 mm
